Measurements from patent US8158828B2, “Nuclear receptor binding agents” (priority 2005, dated 2012).
“Also recorded” adds a separate entry of the source.

How the values were obtained:
uterus = test: In vivo estrogenic activity, uterine weight; design: species or system rat; conditions: female rats; for estrogenic activity in terms of uterine weight: compound alone
Experimental: Rats that were administered the vehicle alone served as controls.

PC-3 cells = test: Androgen independent prostate cancer cell growth; type: cell-based; conditions: for PC-3 cell growth inhibition: 72 hrs; for PC-3 growth inhibition, qualitative grading: in vitro, data not shown
Experimental: PC-3 cells were plated in RPMI+10% csFBS at 6000 cells per well of a 96 well plate. Medium was changed to RPMI+1% csFBS without phenol red and then treated for 72 hrs with increasing concentrations of SERMs.
The prostate cancer cell line PC-3 was plated in RPMI+10% csFBS at 6000 cells per well of a 96 well plate. Medium was changed to RPMI+1% csFBS without phenol red and cells were treated for 72 hrs with increasing concentrations of SERMs.
PC-3 growth inhibition was determined qualitatively, in vitro, and represented as a grading system based on the ability of the SERMs to inhibit growth. The number −4 is for compounds that induced 100% growth inhibition at 1 uM, −3 for compounds that inhibit growth by about 75-90%, −2 for about 50-70% and −1 for inhibition less than 50% growth.

[1] = Metabolic stability in human liver microsomes; conditions: 1 μM substrate, 0.5 mg/mL microsomes
Experimental: Each substrate or reference control was dissolved at a concentration of 10 mM in DMSO, from which a 5 μM spiking solution was prepared by dilution in water. Substrates (1 μM) were incubated in the presence of human liver microsomes (Xenotech LLC, Kansas City Mo.) at 0.5 mg/mL fortified with an NADPH regenerating system at 37° C. and pH 7.4. The NADPH regenerating system consisted of glucose-6-phosphate dehydrogenase (1 units/mL) in 0.05M K2HPO4. Duplicate incubations were performed in 96-well polypropylene cluster tubes in a final volume of 250 μL per reaction. At 0, 2, 4, 6, 10, 30, and 60 minutes a stop solution (300 μL acetonitrile) was added to aliquots of the reaction mixture. Precipitated protein was removed by centrifugation (3000 rpm for 15 minutes) and the supernatants were transferred to clean 96-well plates for analysis.
The samples were injected onto a Phenomenex Luna hexylphenyl 50×2 mm i.d. 5 uM, column fitted with a guard column. An isocratic mobile phase consisting of 50% acetonitrile and 0.1% formic acid in water was used at a flow rate of 0.3 mL/min. The protonated molecular ion (M+H)^+ of the analyte was monitored by MDS/Sciex API 4000QTrap triple quadrupole mass spectrometer using electrospray positive mode ionization with a temperature of 500° C. and a spray voltage of 4000V. Total analysis time was 1.5 min per sample.
Metabolic stability was defined as the amount of substrate metabolized by the incubation with hepatic microsomes and expressed as a percentage of the initial amount of substrate (% remaining) based on peak area. Initial substrate concentration for each analyte was 1 μM. The initial peak area of each substrate was determined at time zero and metabolic stability was assessed based on the change in analyte peak area from time 0 min to a single fixed timepoint for each sample (2-60 min, representative timepoints are shown in Table 2 below).

ER-α = target: T1, ER-α (Rattus norvegicus, UniProt P06211); test: ER-α transactivation, ERE-LUC in COS or 293 cells; type: cell-based; design: % estardiol activity, ER-α: dose or concentration left out as unconfirmed; conditions: for inhibition of estradiol (E2) induced ER-α activity (luciferase expression): with estrogen
T1 sequence (P06211 1-600): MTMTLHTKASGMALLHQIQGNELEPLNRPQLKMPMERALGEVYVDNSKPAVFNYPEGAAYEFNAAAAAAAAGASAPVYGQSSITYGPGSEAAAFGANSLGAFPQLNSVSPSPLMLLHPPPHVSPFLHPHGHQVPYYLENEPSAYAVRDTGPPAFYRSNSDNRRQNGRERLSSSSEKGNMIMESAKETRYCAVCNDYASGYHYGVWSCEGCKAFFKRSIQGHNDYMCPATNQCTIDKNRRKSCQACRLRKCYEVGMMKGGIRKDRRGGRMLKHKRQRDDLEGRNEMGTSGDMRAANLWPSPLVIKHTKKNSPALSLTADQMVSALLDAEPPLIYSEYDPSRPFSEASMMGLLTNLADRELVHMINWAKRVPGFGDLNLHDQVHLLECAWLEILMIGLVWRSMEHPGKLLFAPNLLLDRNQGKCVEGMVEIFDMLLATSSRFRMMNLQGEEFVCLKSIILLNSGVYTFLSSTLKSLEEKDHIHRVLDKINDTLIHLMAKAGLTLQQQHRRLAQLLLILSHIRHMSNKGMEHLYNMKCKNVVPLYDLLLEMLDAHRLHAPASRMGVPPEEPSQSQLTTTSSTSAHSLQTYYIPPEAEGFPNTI

Row | SMILES | estrogenic activity in terms of uterine weight (uterus) | uterine weight increase, with ICI-182,780 (uterus; with ICI-182,780) | uterine weight, coadministered with estrogen (uterus; with estrogen) | PC-3 cell growth inhibition (PC-3 cells; concentration not given) | PC-3 growth inhibition, qualitative grading (PC-3 cells) | % Remaining 0 min [1] [%] | % Remaining 10 min [1] [%] | % Remaining 30 min [1] [%] | % Remaining 60 min [1] [%] | % estardiol activity, ER-α (ER-α) [%] | ER-α activity (luciferase expression), compound alone (ER-α; COS or 293 cells) | inhibition of estradiol (E2) induced ER-α activity (luciferase expression) (ER-α; COS or 293 cells) | IC50 (ER-α; ER alpha antagonists) [nM] | PC-3 cell growth inhibition (PC-3 cells; 1 μM) [%]
1 | O=C(c1ccccc1)N(c1ccc(O)cc1)c1ccc(OCCN2CCCCC2)cc1 [Compound 4a, N-(4-hydroxyphenyl)-N-[4-(2-piperidin-1-ylethoxy)-phenyl]-benzamide] | exhibited estrogenic activity, in terms of increased uterine weight; also recorded: exhibited estrogenic activity, in vivo | ICI-182,780 reversed 4a and 4g effects on uterine weight increase | an increase in uterine weight was observed | about 50% | −1 (−1 for inhibition less than 50% growth) | 100 | 105 | 95 | 74 | 29.9 | no effect on ER-α activity; also recorded: neither SERM alone showed any such effect | inhibited the estradiol (E2) induced ER-α activity to basal levels; also recorded: inhibited estrogen stimulated luciferase expression | 35 | –
2 | Cl.O=C(c1ccc(F)cc1)N(c1ccc(O)cc1)c1ccc(OCCN2CCCCC2)cc1 [Compound 4h, N-(4-hydroxyphenyl)-N-[4-(2-piperidin-1-ylethoxy)-phenyl]-4-fluroro-benzamide hydrochloride] | exhibited no estrogenic, or anti-estrogenic activity in uterus | – | – | – | −2 (−2 for about 50-70%) | 100 | 99 | 86 | 70 | 17.4 | – | inhibited estrogen stimulated luciferase expression | – | 75
